Legend:
Format in all cases: cell-based
[1] = molecular target: T1, P2X2 A304I (Homo sapiens, UniProt Q9UBL9, A304I); test: Site-saturation screen of ligand-binding domain with ATP, A304I; conditions: 500 μM ATP, ± sd
T1 construct: expressed in transfected cells; host or cells: Saccharomyces cerevisiae BY4741 derivative, genome-integrated, galactose-inducible
Text: (§1) The yeast P2X2 screening platform poses an opportunity to probe the structure-function of the ligand-binding domain in detail. The conserved P2X “NFR” motif at residues 300 to 302 is directly involved in bonding to the ATP triphosphate moiety ([41]), so we mutagenized residues at or near this motif (298–304), ultimately covering 133 variants (7 sites, 19 residues each). […] We compared our results to phylogenetic data based on a multiple sequence alignment (MSA) from a curated set of 419 related P2X homologs (Figs. 3B, and S5; Table S1).
(§2) Figure 3 Structure-function analysis of the ligand binding domain.A, heat map summarizing the screening data of ATP with seven site-saturation libraries surrounding the NFR-motif. B, sequence-logo plot of the mutagenized residues and percent identity scores as determined from MSA. C, homology model of P2X2 colored by sequence conservation as calculated from a multiple sequence alignment of 419 related P2X genes. Conservation is scored on a log scale where maroon is more conserved and blue is less conserved. D, ATP in the ligand-binding pocket of P2X2. […]
(§3) GCaMP assays were performed as follows. […] Cells were loaded onto a black, clear bottom microplate and imaged on a FlexStation3 plate reader. […] Fluorescence was measured with an excitation at 485 nm, and emission 525 nm. […] For strains with mScarlet, fluorescence was read with excitation 570 nm/emission 610 nm. […]

[2] = molecular target: T2, P2X2 N300S (Homo sapiens, UniProt Q9UBL9, N300S); test: Site-saturation screen of ligand-binding domain with ATP, N300S; conditions: 500 μM ATP, ± sd
T2 construct: expressed in transfected cells; host or cells: S. cerevisiae BY4741 background
Text: as §1, §2, §3

[3] = molecular target: T3, P2X2 A304F (Homo sapiens, UniProt Q9UBL9, A304F); test: Site-saturation screen of ligand-binding domain with ATP, A304F; conditions: 500 μM ATP, ± sd
T3 construct: expressed in transfected cells; host or cells: Saccharomyces cerevisiae BY4741 derivative, genome-integrated, galactose-inducible
Text: as §1, §2, §3

[4] = molecular target: T4, P2X2 F303M (Homo sapiens, UniProt Q9UBL9, F303M); test: Site-saturation screen of ligand-binding domain with ATP, F303M; conditions: 500 μM ATP, ± sd
T4 construct: expressed in transfected cells; host or cells: Saccharomyces cerevisiae BY4741 derivative, genome-integrated, galactose-inducible
Text: as §1, §2, §3

[5] = molecular target: T5, P2X2 G353R (Homo sapiens, UniProt Q9UBL9, G353R); test: Site-saturation screen, fast kinetic assay in yeast, G353R; conditions: 500 μM ATP, ΔF/ΔT normalized to WT
T5 construct: expressed in transfected cells; host or cells: S. cerevisiae BY4741 background
Method: Figure 2 P2X2 SNP testing.A, homology model of P2X2 with the clinically implicated SNPs highlighted. V60 is highlighted in magenta and G353 is highlighted in dark blue. Lines indicate the positions of the mutations on each of the three monomers. B, zoomed view of the transmembrane region from the purple box in (A). V60 is magenta and G353 is dark blue. The structure is rotated 60° on the right image. C, screening data from site-saturation of the V60 residue in saturating ATP concentration (500 μM f.c.) using the fast kinetic assay. Signal onset values (ΔF/ΔT) are normalized to values from the WT receptor. […] Each of 2 to 3 replicates is represented as a single point. […]
GCaMP assays were performed as follows. […] Cells were loaded onto a black, clear bottom microplate and imaged on a FlexStation3 plate reader. […] Fluorescence was measured with an excitation at 485 nm, and emission 525 nm. […] For strains with mScarlet, fluorescence was read with excitation 570 nm/emission 610 nm. Slopes were calculated from the last 6 points of measurement and were normalized to the positive control samples. Any replicate in which the mScarlet value was measured to be over 2 standard deviations less than the mean for that set was discarded from further analysis.

[6] = molecular target: T6, P2X2 F303L (Homo sapiens, UniProt Q9UBL9, F303L); test: Site-saturation screen of ligand-binding domain with ATP, F303L; conditions: 500 μM ATP, ± sd
T6 construct: expressed in transfected cells; host or cells: Saccharomyces cerevisiae BY4741 derivative, genome-integrated, galactose-inducible
Text: as §1, §2, §3

[7] = molecular target: T7, P2X2 A304H (Homo sapiens, UniProt Q9UBL9, A304H); test: Site-saturation screen of ligand-binding domain with ATP, A304H; conditions: 500 μM ATP, ± sd
T7 construct: expressed in transfected cells; host or cells: Saccharomyces cerevisiae BY4741 derivative, genome-integrated, galactose-inducible
Text: as §1, §2, §3

T4 sequence (Q9UBL9 whole entry F303M, the tested form may be a part): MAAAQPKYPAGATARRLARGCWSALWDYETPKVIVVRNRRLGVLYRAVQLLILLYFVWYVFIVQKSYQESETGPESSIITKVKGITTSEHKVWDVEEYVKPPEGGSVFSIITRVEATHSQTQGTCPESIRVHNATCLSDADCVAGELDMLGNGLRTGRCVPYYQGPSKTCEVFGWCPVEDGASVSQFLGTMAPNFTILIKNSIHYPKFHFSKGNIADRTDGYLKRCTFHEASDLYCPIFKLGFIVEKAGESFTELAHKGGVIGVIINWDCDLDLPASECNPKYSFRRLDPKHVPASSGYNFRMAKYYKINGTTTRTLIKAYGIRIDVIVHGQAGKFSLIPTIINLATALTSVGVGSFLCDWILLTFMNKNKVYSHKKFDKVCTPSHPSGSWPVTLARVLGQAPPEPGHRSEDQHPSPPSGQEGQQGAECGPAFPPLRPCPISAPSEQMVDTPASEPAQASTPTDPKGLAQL
T5 sequence (Q9UBL9 whole entry G353R): as the sequence (Q9UBL9 whole entry F303M, the tested form may be a part) above, with M303F, G353R counted along it
T2 sequence (Q9UBL9 whole entry N300S, the tested form may be a part): as the sequence (Q9UBL9 whole entry F303M, the tested form may be a part) above, with N300S, M303F counted along it
T7 sequence (Q9UBL9 whole entry A304H, the tested form may be a part): as the sequence (Q9UBL9 whole entry F303M, the tested form may be a part) above, with M303F, A304H counted along it
T6 sequence (Q9UBL9 whole entry F303L, the tested form may be a part): as the sequence (Q9UBL9 whole entry F303M, the tested form may be a part) above, with M303L counted along it
T3 sequence (Q9UBL9 whole entry A304F, the tested form may be a part): as the sequence (Q9UBL9 whole entry F303M, the tested form may be a part) above, with M303F, A304F counted along it
T1 sequence (Q9UBL9 whole entry A304I, the tested form may be a part): as the sequence (Q9UBL9 whole entry F303M, the tested form may be a part) above, with M303F, A304I counted along it

## Nc1ncnc2c1ncn2[C@@H]1O[C@H](COP(=O)(O)OP(=O)(O)OP(=O)(O)O)[C@@H](O)[C@H]1O [ATP]
[1]
  signal, % of WT signaling: 24 ± 17%
[2]
  signal, % of WT signaling: 151 ± 16%
[3]
  signal, % of WT signaling: 57 ± 2.6%
[4]
  signal, % of WT signaling: 71 ± 14%
[5]
  function in the assay: not observed to be functional
[6]
  signal, % of WT signaling: 108 ± 89%
[7]
  signal, % of WT signaling: 27 ± 18%

Reference: PMC11063903, “Engineering a human P2X2 receptor with altered ligand selectivity in yeast” (The Journal of Biological Chemistry, 2024)
